Data taken from ChEMBL document CHEMBL4627383, “Optimization of 2-(1H-imidazo-2-yl)piperazines series of Trypanosoma brucei growth inhibitors as potential treatment for the second stage of HAT” (Bioorg Med Chem Lett, 2020).
Calls of active or inactive are those of the source. No cut-off for these calls is given here.

Legend:
Trypanosoma brucei [1] = assay: Antitrypanosomal activity against Trypanosoma brucei assessed as parasite growth inhibition in presence of 10% FBS; format: functional, organism-based
[2] = Permeability in porcine brain endothelial cells/rat astrocytes model system; format: ADME, cell-based; details: read-out: permeability
[3] = Cmax in C57BL6 mouse at 30 mg/kg, ip; format: ADME, organism-based; parameters: dose 30 mg/kg, route intraperitoneal; details: in vivo
[4] = Protein binding in mouse plasma assessed as unbound fraction; format: ADME, cell-free
[5] = Half life in mouse hepatocytes; format: ADME, cell-based, Hepatocyte
[6] = Oral bioavailability in C57BL6 mouse at 30 mg/kg; format: ADME, organism-based; details: in vivo
Trypanosoma brucei [7] = assay: Antitrypanosomal activity against Trypanosoma brucei assessed as parasite growth inhibition in presence of 50% mouse serum; format: functional, organism-based
[8] = Half life in human hepatocytes; format: ADME, cell-based, Hepatocyte
[9] = tested on: Trypanosoma brucei rhodesiense; assay: […] activity against Trypanosoma brucei rhodesiense assessed as reduction in parasite viability after 2 hrs by time kill assay; format: functional, organism-based
HeLa = assay: (§1) Cytotoxicity against human HeLa cells assessed as reduction in cell viability; format: cell-based; details: hela
HUVEC = assay: (§2) Cytotoxicity against HUVEC assessed as reduction in cell viability; format: cell-based; details: human
[10] = as §1; format: cell-based; details: HeLa cells
[11] = as §2; format: cell-based; details: human

Row | Compound | EC50 (Trypanosoma brucei [1]) | also measured
1 | COc1ccc2nc(C(F)(F)F)n(CC(=O)N3CC[C@@H](N(C)C)C[C@H]3c3ncc(-c4cc5ccccc5nc4OC)[nH]3)c2c1 | 659 nM | –
2 | COc1ccc2nc(C(F)(F)F)n(CC(=O)N3CCS(=O)(=O)CC3c3ncc(-c4cc5ccccc5nc4OC)[nH]3)c2c1 (stereo unspecified) | 355 nM | –
3 | COc1ccc2[nH]c(C)c(C(=O)N3CCN(CC4CCOC4)C[C@H]3c3ncc(-c4cc5ccccc5nc4OC)[nH]3)c2c1 (mixture of isomers) | 23 nM | –
4 | COc1nc2ccccc2cc1-c1cnc([C@@H]2CN(CC3CCOC3)CCN2C(=O)n2c(C(F)(F)F)nc3ccccc32)[nH]1 (stereo partly specified) | 20 nM | Papp [2]: 8.6 ×10⁻⁶ cm/s; Cmax [3]: 6.9 µM; fraction unbound [4]: 0.0204; half-life [5]: 0.8 h; bioavailability [6]: 133%; EC50 (Trypanosoma brucei [7]): 850 nM; half-life [8]: 2.6 h; Activity [9]: Active
5 | COc1ccc2[nH]c(C)c(CC(=O)N3CCN(CC4CCOC4)CC3c3ncc(-c4ccc5ccccc5c4)[nH]3)c2c1 (stereo unspecified) | – | Activity (HeLa): Non-Toxic; Activity (HUVEC): Non-Toxic
6 | COc1ccc2nc(C)n(C(=O)N3CCN(CC4CCOC4)C[C@H]3c3ncc(-c4cc5ccccc5nc4OC)[nH]3)c2c1 (stereo partly specified) | 32 nM | –
7 | COc1ccc2nc(C(F)(F)F)n(CC(=O)N3CC[C@H](NC4CCOC4)C[C@H]3c3ncc(-c4cc5ccccc5nc4OC)[nH]3)c2c1 (stereo partly specified) | 7 nM | Cmax [3]: 5 µM; fraction unbound [4]: 0.047; half-life [5]: 4 h; CC50 [10]: 7490 nM; CC50 [11]: 3680 nM; bioavailability [6]: 103%; EC50 (Trypanosoma brucei [7]): 232 nM; half-life [8]: 3.1 h
8 | COc1ccc2nc(C(F)(F)F)n(C(=O)N3CCN(C4CCN(C)CC4)C[C@H]3c3ncc(-c4cc5ccccc5nc4OC)[nH]3)c2c1 | 180 nM | –
9 | COc1ccc2nc(C(F)(F)F)n(CC(=O)N3CCOCC3c3ncc(-c4cc5ccccc5nc4OC)[nH]3)c2c1 (stereo unspecified) | 286 nM | –
10 | COc1nc2ccccc2cc1-c1cnc([C@@H]2CN(CC3CCOC3)CCN2C(=O)n2c(C)nc3cncnc32)[nH]1 (stereo partly specified) | 384 nM | –
11 | COc1ccc2nc(C(F)(F)F)n(C(=O)N3CCN(CC4CCOC4)C[C@H]3c3ncc(-c4cc5ccccc5nc4OC)[nH]3)c2c1 (stereo partly specified) | 9 nM | –
12 | COc1ccc2nc(C(F)(F)F)n(C(=O)N3CCN(Cc4cnccn4)C[C@H]3c3ncc(-c4cc5ccccc5nc4OC)[nH]3)c2c1 | 6 nM | –
13 | COc1ccc2nc(C(F)(F)F)n(CC(=O)N3CCCCC3c3ncc(-c4cc5ccccc5nc4OC)[nH]3)c2c1 (stereo unspecified) | 73 nM | –
14 | COc1ccc2nc(C(F)(F)F)n(CC(=O)N3CCN(CC4CCOC4)CCC3c3ncc(-c4cc5ccccc5nc4OC)[nH]3)c2c1 (stereo unspecified) | 51 nM | –
15 | COc1ccc2nc(C(F)(F)F)n(CC(=O)N3CC[C@H](N(C)C)C[C@H]3c3ncc(-c4cc5ccccc5nc4OC)[nH]3)c2c1 | 98 nM | –
16 | COc1nc2ccccc2cc1-c1cnc([C@@H]2CN(CC3CCOC3)CCN2C(=O)n2c(C)nc3ccccc32)[nH]1 (stereo partly specified) | 163 nM | –
17 | COc1ccc2nc(C(F)(F)F)n(C(=O)N3CCN(Cc4nccs4)C[C@H]3c3ncc(-c4cc5ccccc5nc4OC)[nH]3)c2c1 | 2 nM | –
18 | COc1ccc2nc(C(F)(F)F)n(CC(=O)N3C[C@H](NC4CCOC4)CC[C@H]3c3ncc(-c4cc5ccccc5nc4OC)[nH]3)c2c1 (stereo partly specified) | 11 nM | –
19 | COc1ccc2nc(C(F)(F)F)n(CC(=O)N3CC[C@H](NCC4CCOC4)C[C@H]3c3ncc(-c4cc5ccccc5nc4OC)[nH]3)c2c1 (stereo partly specified) | 17 nM | –
